Results: publication PMC5218480 (PLoS ONE, 2017)

Test system: MV-4-11 cells
Assay: Gene expression microarray analysis (Affymetrix PrimeView) and GSEA
Assay type: cell-based, human
Set-up: RFU PODN (11730768_x_at) / Fold change /veh PODN (11730768_x_at) / RFU LINC00158 (11744669_a_at) / Fold change /veh LINC00158 (11744669_a_at) / RFU DUSP10 (11751237_a_at) / Fold change /veh DUSP10 (11751237_a_at) / RFU ID3 (11757404_x_at) / Fold change /veh ID3 (11757404_x_at) / RFU PLEKHG5 (11737974_s_at) / Fold change /veh PLEKHG5 (11737974_s_at) / RFU LRRC4B (11730491_at) / Fold change /veh LRRC4B (11730491_at) / RFU GIMAP4 (11747438_a_at) / Fold change /veh GIMAP4 (11747438_a_at) / RFU KRT8 (11758183_x_at) / Fold change /veh KRT8 (11758183_x_at) / RFU CNN1 (11734310_a_at) / Fold change /veh CNN1 (11734310_a_at) / RFU VPS37D (11726825_at) / Fold change /veh VPS37D (11726825_at) / RFU C10orf10 (11716522_x_at) / Fold change /veh C10orf10 (11716522_x_at) / RFU KIR2DL2 /// KIR2DL4 /// KIR2DL5A /// KIR2DL5B /// KIR2DS1 /// KIR2DS2 /// KIR2DS3 /// KIR2DS4 /// KIR3DL3 /// KIR3DL3 /// KIR3DS1 (11738374_at) / Fold change /veh KIR2DL2 /// KIR2DL4 /// KIR2DL5A /// KIR2DL5B /// KIR2DS1 /// KIR2DS2 /// KIR2DS3 /// KIR2DS4 /// KIR3DL3 /// KIR3DL3 /// KIR3DS1 (11738374_at) / RFU C1QL1 (11718748_at) / Fold change /veh C1QL1 (11718748_at) / RFU TMPRSS4 (11747572_a_at) / Fold change /veh TMPRSS4 (11747572_a_at) / RFU HAMP (11756126_x_at) / Fold change /veh HAMP (11756126_x_at) / RFU RNFT2 (11725882_a_at) / Fold change /veh RNFT2 (11725882_a_at) / RFU NR4A2 (11747474_a_at) / Fold change /veh NR4A2 (11747474_a_at) / RFU ABCC12 (11746883_a_at) / Fold change /veh ABCC12 (11746883_a_at) / RFU TMEM136 (11760407_x_at) / Fold change /veh TMEM136 (11760407_x_at) / RFU CLDN22 /// WWC2 (11732394_at) / Fold change /veh CLDN22 /// WWC2 (11732394_at) / RFU HLA-DPB1 (11760878_x_at) / Fold change /veh HLA-DPB1 (11760878_x_at) / RFU SPINT1 (11716480_a_at) / Fold change /veh SPINT1 (11716480_a_at) / RFU GAP43 (11754022_s_at) / Fold change /veh GAP43 (11754022_s_at) / RFU A4GNT (11735810_at) / Fold change /veh A4GNT (11735810_at) / RFU PRB3 (11715151_x_at) / Fold change /veh PRB3 (11715151_x_at) / RFU TUBB4B (11761932_at) / Fold change /veh TUBB4B (11761932_at) / RFU CAPN14 (11732068_a_at) / Fold change /veh CAPN14 (11732068_a_at) / RFU TMCC2 (11721928_a_at) / Fold change /veh TMCC2 (11721928_a_at) / RFU IRGQ (11745062_a_at) / Fold change /veh IRGQ (11745062_a_at) / RFU FAM174B (11720279_a_at) / Fold change /veh FAM174B (11720279_a_at) / RFU TMPRSS4 (11748680_a_at) / Fold change /veh TMPRSS4 (11748680_a_at) / RFU FAM212B (11763350_a_at) / Fold change /veh FAM212B (11763350_a_at) / RFU PLEKHG5 (11743358_a_at) / Fold change /veh PLEKHG5 (11743358_a_at) / RFU ZSCAN30 (11745921_a_at) / Fold change /veh ZSCAN30 (11745921_a_at) / RFU CMKLR1 (11741424_a_at) / Fold change /veh CMKLR1 (11741424_a_at) / RFU LOC101060620 /// MAPK8IP1 (11723275_at) / Fold change /veh LOC101060620 /// MAPK8IP1 (11723275_at) / RFU SPTSSB (11747773_x_at) / Fold change /veh SPTSSB (11747773_x_at) / RFU PRSS12 (11739890_at) / Fold change /veh PRSS12 (11739890_at) / RFU BIN1 (11741810_x_at) / Fold change /veh BIN1 (11741810_x_at) / RFU WNT11 (11732464_a_at) / Fold change /veh WNT11 (11732464_a_at) / RFU C10orf10 (11716521_a_at) / Fold change /veh C10orf10 (11716521_a_at) / RFU C5orf56 (11738089_at) / Fold change /veh C5orf56 (11738089_at) / RFU CYB561 (11721691_x_at) / Fold change /veh CYB561 (11721691_x_at) / RFU ANKRD19P (11752326_a_at) / Fold change /veh ANKRD19P (11752326_a_at) / RFU OR2T12 /// OR2T33 /// OR2T8 (11738714_s_at) / Fold change /veh OR2T12 /// OR2T33 /// OR2T8 (11738714_s_at) / RFU VCAN (11748164_a_at) / Fold change /veh VCAN (11748164_a_at) / RFU JSRP1 (11732532_at) / Fold change /veh JSRP1 (11732532_at) / RFU KRTAP10-11 (11738290_x_at) / Fold change /veh KRTAP10-11 (11738290_x_at) / RFU MYO3A (11730013_a_at) / Fold change /veh MYO3A (11730013_a_at) / RFU EBF3 (11725865_a_at) / Fold change /veh EBF3 (11725865_a_at) / RFU CAMK2N1 (11719241_x_at) / Fold change /veh CAMK2N1 (11719241_x_at) / RFU C5orf56 (11738088_a_at) / Fold change /veh C5orf56 (11738088_a_at) / RFU OLFML3 (11715873_a_at) / Fold change /veh OLFML3 (11715873_a_at) / RFU LOC100653217 /// NTM (11731650_a_at) / Fold change /veh LOC100653217 /// NTM (11731650_a_at) / RFU MAPK11 (11762145_a_at) / Fold change /veh MAPK11 (11762145_a_at) / RFU FIZ1 (11724087_x_at) / Fold change /veh FIZ1 (11724087_x_at) / RFU OASL (11726364_x_at) / Fold change /veh OASL (11726364_x_at) / RFU SOX15 (11748057_x_at) / Fold change /veh SOX15 (11748057_x_at) / RFU CD79A (11719716_a_at) / Fold change /veh CD79A (11719716_a_at) / RFU HIST1H1D (11736915_at) / Fold change /veh HIST1H1D (11736915_at) / RFU CASKIN2 (11723855_a_at) / Fold change /veh CASKIN2 (11723855_a_at) / RFU LOC730098 (11760151_x_at) / Fold change /veh LOC730098 (11760151_x_at) / RFU OR4N2 (11742367_at) / Fold change /veh OR4N2 (11742367_at) / RFU PRRT2 (11749266_a_at) / Fold change /veh PRRT2 (11749266_a_at) / RFU SNX32 (11753110_a_at) / Fold change /veh SNX32 (11753110_a_at) / RFU CDHR5 (11726645_a_at) / Fold change /veh CDHR5 (11726645_a_at) / RFU RCAN1 (11760418_a_at) / Fold change /veh RCAN1 (11760418_a_at) / RFU FAM167A (11723789_a_at) / Fold change /veh FAM167A (11723789_a_at) / RFU FAM26E (11764081_at) / Fold change /veh FAM26E (11764081_at) / RFU ISYNA1 (11749810_s_at) / Fold change /veh ISYNA1 (11749810_s_at) / RFU ACY1 (11761880_at) / Fold change /veh ACY1 (11761880_at) / RFU 11764098_at / Fold change /veh 11764098_at / RFU SAMD14 (11745864_x_at) / Fold change /veh SAMD14 (11745864_x_at) / RFU NPB (11741838_a_at) / Fold change /veh NPB (11741838_a_at) / RFU TMPRSS6 (11731388_a_at) / Fold change /veh TMPRSS6 (11731388_a_at) / RFU KRTAP10-2 (11738614_at) / Fold change /veh KRTAP10-2 (11738614_at) / RFU ARHGAP8 /// PRR5-ARHGAP8 (11727945_x_at) / Fold change /veh ARHGAP8 /// PRR5-ARHGAP8 (11727945_x_at) / RFU KRTAP5-7 /// NADSYN1 (11734609_at) / Fold change /veh KRTAP5-7 /// NADSYN1 (11734609_at) / RFU RASL12 (11751679_a_at) / Fold change /veh RASL12 (11751679_a_at) / RFU CDKN2B (11736163_a_at) / Fold change /veh CDKN2B (11736163_a_at) / RFU PRF1 (11729649_at) / Fold change /veh PRF1 (11729649_at) / RFU, ZNF638 /// ZNF638-IT1 / Fold change vs veh, ZNF638 /// ZNF638-IT1 / RFU, PANK3 / Fold change vs veh, PANK3 / RFU, SH3YL1 / Fold change vs veh, SH3YL1 / RFU, ZEB2 / Fold change vs veh, ZEB2 / RFU, NRIP1 / Fold change vs veh, NRIP1 / RFU, PTTG1IP / Fold change vs veh, PTTG1IP / RFU, CAPN2 / Fold change vs veh, CAPN2 / RFU, MED14 / Fold change vs veh, MED14 / RFU, SNORA58 / Fold change vs veh, SNORA58 / RFU, C1orf63 / Fold change vs veh, C1orf63 / RFU, LRRFIP1 / Fold change vs veh, LRRFIP1 / RFU, NDUFAF7 / Fold change vs veh, NDUFAF7 / RFU, SLC12A2 / Fold change vs veh, SLC12A2 / RFU, IBTK / Fold change vs veh, IBTK / RFU, ESF1 / Fold change vs veh, ESF1 / Fold change vs veh, TMEM50B / RFU, TAOK1 / Fold change vs veh, TAOK1 / RFU, ACBD3 / Fold change vs veh, ACBD3 / RFU, TMA16 / Fold change vs veh, TMA16 / RFU, RWDD3 / Fold change vs veh, RWDD3 / RFU, BCAT1 / Fold change vs veh, BCAT1 / RFU, EDEM3 / Fold change vs veh, EDEM3 / RFU, TMEM33 / Fold change vs veh, TMEM33 / RFU, WDR75 / Fold change vs veh, WDR75 / RFU, AHCTF1 / Fold change vs veh, AHCTF1 / RFU, TFRC / Fold change vs veh, TFRC / RFU, ZDHHC17 / Fold change vs veh, ZDHHC17 / RFU, NOM1 / Fold change vs veh, NOM1 / RFU, ARL8B / Fold change vs veh, ARL8B / RFU, ZBTB11 / Fold change vs veh, ZBTB11 / RFU, TAMM41 / Fold change vs veh, TAMM41 / RFU, KIAA1704 /// LOC100996395 / Fold change vs veh, KIAA1704 /// LOC100996395 / RFU, ING1 / Fold change vs veh, ING1 / RFU, TRMT61B / Fold change vs veh, TRMT61B / RFU, FUBP3 / Fold change vs veh, FUBP3 / RFU, TP53 / Fold change vs veh, TP53 / RFU, TNKS2 / Fold change vs veh, TNKS2 / RFU, ZFP14 / Fold change vs veh, ZFP14 / RFU, ACTR2 / Fold change vs veh, ACTR2 / RFU, PPP3R1 / Fold change vs veh, PPP3R1 / RFU, PIK3R1 / Fold change vs veh, PIK3R1 / RFU, HNRNPA1 / Fold change vs veh, HNRNPA1 / RFU, RNF170 / Fold change vs veh, RNF170 / RFU, ZNF28 / Fold change vs veh, ZNF28 / RFU, RNGTT / Fold change vs veh, RNGTT / RFU, OGT / Fold change vs veh, OGT / RFU, BRD1 / Fold change vs veh, BRD1 / RFU, MARS / Fold change vs veh, MARS / RFU, ZNF655 / Fold change vs veh, ZNF655 / RFU, FAHD1 / Fold change vs veh, FAHD1 / RFU, BDP1 / Fold change vs veh, BDP1 / RFU, LRRCC1 / Fold change vs veh, LRRCC1 / RFU, ARID1A / Fold change vs veh, ARID1A / RFU, ZNF146 / Fold change vs veh, ZNF146 / RFU, ZNF330 / Fold change vs veh, ZNF330 / RFU, GPN3 / Fold change vs veh, GPN3 / RFU, C9orf123 / Fold change vs veh, C9orf123 / RFU, N4BP2L2 / Fold change vs veh, N4BP2L2 / RFU, ARFIP1 / Fold change vs veh, ARFIP1 / RFU, FAM179B / Fold change vs veh, FAM179B / RFU, BCL10 / Fold change vs veh, BCL10 / RFU, UHRF1BP1L / Fold change vs veh, UHRF1BP1L / RFU, BET1 / Fold change vs veh, BET1 / RFU, CNOT2 / Fold change vs veh, CNOT2 / RFU, ZNF268 / Fold change vs veh, ZNF268 / Fold change vs veh, ZNF507 / RFU, DGCR2 / Fold change vs veh, DGCR2 / RFU, WDSUB1 / Fold change vs veh, WDSUB1 / Fold change vs veh, HSP90B1 /// MIR3652 / RFU, ADSS / Fold change vs veh, ADSS / RFU, GK / Fold change vs veh, GK / RFU, ZNF148 / Fold change vs veh, ZNF148 / RFU, TAF9 / Fold change vs veh, TAF9 / RFU, SLC1A5 / Fold change vs veh, SLC1A5 / RFU, SLMO2 / Fold change vs veh, SLMO2 / RFU, ABCC4 / Fold change vs veh, ABCC4 / RFU, LOC101060439 /// RAP1B / Fold change vs veh, LOC101060439 /// RAP1B / RFU, RFX7 / Fold change vs veh, RFX7 / RFU, GTPBP10 / Fold change vs veh, GTPBP10 / RFU, CNEP1R1 / Fold change vs veh, CNEP1R1 / RFU, BIVM-ERCC5 /// ERCC5 / Fold change vs veh, BIVM-ERCC5 /// ERCC5 / RFU, ILF3 / Fold change vs veh, ILF3 / RFU 11762660_at / Fold change /veh 11762660_at / RFU VCAN (11757783_s_at) / Fold change /veh VCAN (11757783_s_at) / RFU DDX43 (11728927_at) / Fold change /veh DDX43 (11728927_at) / RFU KRT8 (11758188_x_at) / Fold change /veh KRT8 (11758188_x_at) / RFU NKD1 (11759106_at) / Fold change /veh NKD1 (11759106_at) / RFU SRD5A1 (11742802_a_at) / Fold change /veh SRD5A1 (11742802_a_at) / RFU TPSAB1 /// TPSB2 (11721975_s_at) / Fold change /veh TPSAB1 /// TPSB2 (11721975_s_at) / RFU GSTM3 (11746129_a_at) / Fold change /veh GSTM3 (11746129_a_at) / RFU IL23R (11737362_x_at) / Fold change /veh IL23R (11737362_x_at) / RFU TMEM51 (11727254_a_at) / Fold change /veh TMEM51 (11727254_a_at) / RFU PIWIL2 (11732686_x_at) / Fold change /veh PIWIL2 (11732686_x_at) / RFU ORM1 (11744905_x_at) / Fold change /veh ORM1 (11744905_x_at) / RFU CCDC152 (11743942_at) / Fold change /veh CCDC152 (11743942_at) / RFU ECM1 (11717891_a_at) / Fold change /veh ECM1 (11717891_a_at) / RFU IL23R (11748794_a_at) / Fold change /veh IL23R (11748794_a_at) / RFU TNFAIP8L3 (11732012_x_at) / Fold change /veh TNFAIP8L3 (11732012_x_at) / RFU MBOAT4 (11741988_at) / Fold change /veh MBOAT4 (11741988_at) / RFU 11764193_at / Fold change /veh 11764193_at / RFU TMEM53 (11763286_at) / Fold change /veh TMEM53 (11763286_at) / RFU MAGEB2 (11727129_at) / Fold change /veh MAGEB2 (11727129_at) / RFU TMEM200A (11744735_a_at) / Fold change /veh TMEM200A (11744735_a_at) / RFU CCDC152 (11751479_a_at) / Fold change /veh CCDC152 (11751479_a_at) / RFU FAM211A (11726209_a_at) / Fold change /veh FAM211A (11726209_a_at) / RFU RGS16 (11746705_a_at) / Fold change /veh RGS16 (11746705_a_at) / RFU VCAN (11755009_s_at) / Fold change /veh VCAN (11755009_s_at) / RFU RHOB (11743442_s_at) / Fold change /veh RHOB (11743442_s_at) / RFU RGS16 (11720943_a_at) / Fold change /veh RGS16 (11720943_a_at) / RFU RGS16 (11720944_at) / Fold change /veh RGS16 (11720944_at) / RFU, VPS4B / Fold change vs veh, VPS4B / RFU, CREB1 / Fold change vs veh, CREB1 / RFU, DNAJC13 / Fold change vs veh, DNAJC13 / RFU, GNAQ / Fold change vs veh, GNAQ / RFU, CDK5R1 / Fold change vs veh, CDK5R1 / RFU, ZRANB3 / Fold change vs veh, ZRANB3 / RFU, CUL4A / Fold change vs veh, CUL4A / RFU, CCNY / Fold change vs veh, CCNY / RFU, UFL1 / Fold change vs veh, UFL1 / RFU, COG3 / Fold change vs veh, COG3 / RFU, DIAPH2 / Fold change vs veh, DIAPH2 / RFU, SKA2 / Fold change vs veh, SKA2 / RFU, AFF3 / Fold change vs veh, AFF3 / RFU, LMF1 / Fold change vs veh, LMF1 / RFU, IPO11 / Fold change vs veh, IPO11 / RFU, DFFB / Fold change vs veh, DFFB / RFU, FOXP1 / Fold change vs veh, FOXP1 / RFU, CARD8 / Fold change vs veh, CARD8 / RFU, STRN3 / Fold change vs veh, STRN3 / RFU, ADK / Fold change vs veh, ADK / RFU, RASSF2 / Fold change vs veh, RASSF2 / RFU, WIPF1 / Fold change vs veh, WIPF1 / RFU, LARP1B / Fold change vs veh, LARP1B / RFU, RASA1 / Fold change vs veh, RASA1 / RFU, RB1 / Fold change vs veh, RB1 / RFU, PPFIA1 / Fold change vs veh, PPFIA1 / RFU, MAT2A / Fold change vs veh, MAT2A / RFU, CCT5 / Fold change vs veh, CCT5 / RFU, WDR92 / Fold change vs veh, WDR92 / RFU, CUX1 / Fold change vs veh, CUX1 / RFU, TTC7A / Fold change vs veh, TTC7A / RFU, TMEM135 / Fold change vs veh, TMEM135 / RFU, DEPTOR / Fold change vs veh, DEPTOR / RFU, CPM / Fold change vs veh, CPM / RFU, DNAJB6 / Fold change vs veh, DNAJB6 / RFU, CACNA2D3 / Fold change vs veh, CACNA2D3 / RFU, DTX4 / Fold change vs veh, DTX4 / RFU, TFCP2 / Fold change vs veh, TFCP2 / RFU, GMCL1 /// GMCL1P1 / Fold change vs veh, GMCL1 /// GMCL1P1 / RFU, AEBP2 / Fold change vs veh, AEBP2 / RFU, SNHG1 /// SNORD22 /// SNORD25 /// SNORD26 /// SNORD27 /// SNORD28 /// SNORD29 /// SNORD31 / Fold change vs veh, SNHG1 /// SNORD22 /// SNORD25 /// SNORD26 /// SNORD27 /// SNORD28 /// SNORD29 /// SNORD31 / Fold change (Aza/veh), C12orf56 (ProbeSet 11735607_a_at) / Fold change (ACY-1035/veh), C12orf56 (ProbeSet 11735607_a_at) / Fold change (Aza/veh), FGFR1OP (ProbeSet 11751329_s_at) / Fold change (ACY-1035/veh), FGFR1OP (ProbeSet 11751329_s_at) / Fold change (Aza/veh), VPS36 (ProbeSet 11739960_a_at) / Fold change (ACY-1035/veh), VPS36 (ProbeSet 11739960_a_at) / RFU SYPL1 (11715823_x_at) / Fold change /veh SYPL1 (11715823_x_at) / RFU IGFBP7 (11715501_s_at) / Fold change /veh IGFBP7 (11715501_s_at) / RFU REEP3 (11722064_at) / Fold change /veh REEP3 (11722064_at) / RFU IGLL1 (11728026_x_at) / Fold change /veh IGLL1 (11728026_x_at): dose or concentration left out as unconfirmed
Conditions: MV-4-11 cells, 48 hours

Nc1ncn([C@@H]2O[C@H](CO)[C@@H](O)[C@H]2O)c(=O)n1 [azacitidine]
Fold change /veh C10orf10 (11716521_a_at): 1.13
